Reference: patent publication US20230159527A1, “COMPOUNDS AS BCL-2 INHIBITORS” (Fochon Pharmaceuticals, Ltd., priority 2020, published 2023)
Read-outs that look alike come from different tables or passages of the source.

Tests used:
Assay type in all cases: cell-based
RS4;11-BCL-2 F104L cells = experiment: Cell proliferation assay, engineered RS4;11 cells stably overexpressing BCL-2 F104L (MTS, 168 h); details: Homo sapiens, read-out: RS4, 11 BCL2-F104L
Experimental: (§1) MTS testing kit was purchased from Promega (Madison, Wis., USA). The RPMI-1640, Fetal bovine serum and Penicillin-Streptomycin were purchased from BI (Biological Industries, Beit Haemek, Israel). Puromycin was purchased from Beyotime (shanghai, China). Dimethyl sulfoxide (DMSO) was purchased from Sigma (St. Louis, Mo., USA). RS4;1l-BCL-2 G101V and RS4;11-BCL-2 F104L cells were cultured in RPM11640 supplemented with 1 ug/mL puromycin, 100 U/mL Penicillin-Streptomycin and 10% FBS.
(§2) To investigate whether a compound is able to inhibit the activity of BCL-2 mutation in cells, a mechanism-based assay using engineered cell lines stably overexpressing BCL-2 mutation ([…] and […]) was developed. In this assay, the inhibition of BCL-2 mutation was reflected by the inhibition of cell proliferation of RS4;11-BCL-2 G101V and RS4;11-BCL-2 F104L cells. Cells were plated into 96-well plates at optimized cell density (RS4;11-BCL-2 G101V: 5000 cells/well; RS4;11-BCL-2 F104L: 5000 cells/well). Plates were incubated at 37° C., with 5% CO2 for 4 h. Compounds were serially diluted to the final-concentrations of 10000, 3333.3, 1111.1, 370.4, 123.5, 41.2, 13.7, 4.6 and 1.4 nM and added to the plates. Plates were incubated at 37° C., with 5% CO2 for 168 h. 20 μl MTS was added into each well and the plates were incubated at 37° C., with 5% CO2 exactly for 2 h. The absorbance was measured by a microplate reader at 490 nm. IC50 values were calculated using GraphPad Prism 5.0 software.

RS4;11-BCL-2 G101V cells = experiment: Cell proliferation assay, engineered RS4;11 cells stably overexpressing BCL-2 G101V (MTS, 168 h); details: read-out: RS4, 11 BCL2- G101V
Experimental: as §1, §2

Toledo cells = experiment: Cell proliferation assay, Toledo cells (MTS, 72 h); details: Homo sapiens, Toledo cells, MTS, read-out: Toledo IC50
Procedure, shortened: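 IC50 was derived from 490 nm absorbance after a 2 h MTS step. Before that, compounds at 1.5–10000 nM final (nine points) acted on Toledo cells for 72 h at 37 °C, 5% CO2. Cells were seeded at 30000/well in 10% FBS RPMI-1640 and rested 4 h before dosing.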

IC50 (RS4;11-BCL-2 F104L cells)	IC50 (RS4;11-BCL-2 G101V cells; Homo sapiens, RS4-11, 168 h)	IC50 (RS4;11-BCL-2 G101V cells)	SMILES	IC50 (Toledo cells)
1 nM	4 nM	–	COC(C)COc1nc2[nH]cc(F)c2cc1Oc1cc(N2CCC3(CC2)CN([C@H]2CCC[C@H]2c2ccccc2C(C)C)C3)ccc1C(=O)NS(=O)(=O)c1cc2c(c([N+](=O)[O-])c1)N[C@@H]([C@H]1CC[C@](C)(O)CC1)CO2 (single isomer, unassigned) [Example D-241, 2-((3-fluoro-6-(2-methoxypropoxy)-1H-pyrrolo[2,3-b]pyridin-5-yl)oxy)-N-(((S)-3-((1r,4S)-4-hydroxy-4-methylcyclohexyl)-5-nitro-3,4-dihydro-2H-benzo[b][1,4]oxazin-7-yl)sulfonyl)-4-(2-((1S,2S or 1R,2R)-2-(2-isopropylphenyl)cyclopentyl)-2,7-diazaspiro[3.5]nonan-7-yl)benzamide]	–
4 nM	14 nM	–	COC(C)COc1nc2[nH]cc(F)c2cc1Oc1cc(N2CCC3(CC2)CN([C@H]2CCC[C@H]2c2ccccc2C(C)C)C3)ccc1C(=O)NS(=O)(=O)c1ccc(NC[C@H]2CC[C@](C)(O)CC2)c([N+](=O)[O-])c1 (single isomer, unassigned) [Example D-233, 2-((3-fluoro-6-(2-methoxypropoxy)-1H-pyrrolo[2,3-b]pyridin-5-yl)oxy)-N-((4-(((1r,4r)-4-hydroxy-4-methylcyclohexyl)methyl)amino)-3-nitrophenyl)sulfonyl)-4-(2-((1S,2S or 1R,2R)-2-(2-isopropylphenyl)cyclopentyl)-2,7-diazaspiro[3.5]nonan-7-yl)benzamide]	–
1 nM	10 nM	–	COC(C)COc1nc2[nH]cc(F)c2cc1Oc1cc(N2CCC3(CC2)CC(N2CCC[C@H]2c2ccccc2C(C)C)C3)ccc1C(=O)NS(=O)(=O)c1cc2c(c([N+](=O)[O-])c1)N[C@@H]([C@H]1CC[C@](C)(O)CC1)CO2 (single isomer, unassigned) [Example D-243, 2-((3-fluoro-6-(2-methoxypropoxy)-1H-pyrrolo[2,3-b]pyridin-5-yl)oxy)-N-(((S)-3-((1r,4S)-4-hydroxy-4-methylcyclohexyl)-5-nitro-3,4-dihydro-2H-benzo[b][1,4]oxazin-7-yl)sulfonyl)-4-(2-((R or S)-2-(2-isopropylphenyl)pyrrolidin-1-yl)-7-azaspiro[3.5]nonan-7-yl)benzamide]	–
–	14 nM	–	CC(C)c1ccccc1[C@@H]1CCC[C@@H]1N1CC2(CCN(c3ccc(C(=O)NS(=O)(=O)c4cc5c(c([N+](=O)[O-])c4)N[C@@H]([C@H]4CC[C@](C)(O)CC4)CO5)c(Oc4cc5c(F)c[nH]c5nc4Cl)c3)CC2)C1 (single isomer, unassigned) [Example D-106, 2-((6-chloro-3-fluoro-1H-pyrrolo [2,3-b]pyridin-5-yl)oxy)-N-(((S)-3-((1r,4S)-4-hydroxy-4-methylcyclohexyl)-5-nitro-3,4-dihydro-2H-benzo[b][1,4]oxazin-7-yl)sulfonyl)-4-(2-((1S,2S or 1R,2R)-2-(2-isopropylphenyl)cyclopentyl)-2,7-diazaspiro[3.5]nonan-7-yl)benzamide]	1 nM
–	1 nM	–	CCOc1nc2[nH]ccc2cc1Oc1cc(N2CCC3(CC2)CN([C@H]2CCC[C@H]2c2ccccc2C(C)C)C3)ccc1C(=O)NS(=O)(=O)c1cc2c(c([N+](=O)[O-])c1)N[C@@H]([C@H]1CC[C@](C)(O)CC1)CO2 (single isomer, unassigned) [Example D-98, 2-((6-ethoxy-1H-pyrrolo[2,3-b]pyridin-5-yl)oxy)-N-((S)-3-((1r,4S)-4-hydroxy-4-methylcyclohexyl)-5-nitro-3,4-dihydro-2H-benzo[b] [1,4]oxazin-7-yl)sulfonyl)-4-(2-((1S,2S or 1R,2R)-2-(2-isopropylphenyl)cyclopentyl)-2,7-diazaspiro[3.5]nonan-7-yl)benzamide]	1 nM
1 nM	13 nM	–	COC(C)COc1nc2[nH]cc(F)c2cc1Oc1cc(N2CCC3(CC2)CN([C@H]2CCC[C@H]2c2ccccc2C(C)C)C3)ccc1C(=O)NS(=O)(=O)c1cnc(NC[C@H]2CC[C@](C)(O)CC2)c([N+](=O)[O-])c1 (single isomer, unassigned) [Example A-155, 2-((3-fluoro-6-(2-methoxypropoxy)-1H-pyrrolo[2,3-b]pyridin-5-yl)oxy)-N-((6-((((1r,4r)-4-hydroxy-4-methyl-cyclohexyl)methyl)amino)-5-nitro-pyridin-3-yl)sulfonyl)-4-(2-((1S,2S or 1R,2R)-2-(2-isopropylphenyl)cyclo-pentyl)-2,7-diazaspiro[3.5]nonan-7-yl) benzamide]	–
–	–	13 nM	CC(C)c1ccccc1[C@@H]1CCC[C@@H]1N1CC2(CCN(c3ccc(C(=O)NS(=O)(=O)c4cc5c(c([N+](=O)[O-])c4)N[C@@H]([C@H]4CC[C@](C)(O)CC4)CO5)c(Oc4cnc5[nH]cc(F)c5c4)c3)CC2)C1 (single isomer, unassigned) [Example D-28, 2-((3-fluoro-1H-pyrrolo[2,3-b]pyridin-5-yl)oxy)-N-(((S)-3-((1r,4S)-4-hydroxy-4-methylcyclohexyl)-5-nitro-3,4-dihydro-2H-benzo[b] [1,4]oxazin-7-yl)sulfonyl)-4-(2-((1S,2S or 1R,2R)-2-(2-isopropylphenyl)cyclopentyl)-2,7-diazaspiro[3.5]nonan-7-yl)benzamide]	1 nM
–	1 nM	–	CC(C)c1ccccc1[C@@H]1CCCN1C1CC2(CCN(c3ccc(C(=O)NS(=O)(=O)c4cc5c(c([N+](=O)[O-])c4)N[C@@H]([C@H]4CC[C@](C)(O)CC4)CO5)c(Oc4cc5cc[nH]c5nc4OCCN4CCOCC4)c3)CC2)C1 (single isomer, unassigned) [Example D-63, N-(((S)-3-((1r,4S)-4-hydroxy-4-methylcyclohexyl)-5-nitro-3,4-dihydro-2H-benzo[b][1,4]oxazin-7-yl)sulfonyl)-4-(2-((R or S)-2-(2-isopropylphenyl)pyrrolidin-1-yl)-7-azaspiro[3.5]nonan-7-yl)-2-((6-(2-morpholinoethoxy)-1H-pyrrolo[2,3-b]pyridin-5-yl)oxy) benzamide]	1 nM
–	4 nM	–	COCCOc1nc2[nH]ccc2cc1Oc1cc(N2CCC3(CC2)CN([C@H]2CCC[C@H]2c2ccccc2C(C)C)C3)ccc1C(=O)NS(=O)(=O)c1cc2c(c([N+](=O)[O-])c1)N[C@@H]([C@H]1CC[C@](C)(O)CC1)CO2 (racemic) [Example D-75a, N-(((S)-3-((1r,4S)-4-hydroxy-4-methylcyclohexyl)-5-nitro-3,4-dihydro-2H-benzo[b][1,4]oxazin-7-yl)sulfonyl)-4-(2-((1S,2S and 1R,2R)-2-(2-isopropylphenyl)cyclopentyl)-2,7-diazaspiro[3.5]nonan-7-yl)-2-((6-(2-methoxyethoxy)-1H-pyrrolo[2,3-b]pyridin-5-yl)oxy) benzamide]	1 nM
–	15 nM	–	CNCCOc1nc2[nH]ccc2cc1Oc1cc(N2CCC3(CC2)CC(N2CCC[C@H]2c2ccccc2C(C)C)C3)ccc1C(=O)NS(=O)(=O)c1cc2c(c([N+](=O)[O-])c1)N[C@@H]([C@H]1CC[C@](C)(O)CC1)CO2 (single isomer, unassigned) [Example D-59, N-(((S)-3-((1r,4S)-4-hydroxy-4-methylcyclohexyl)-5-nitro-3,4-dihydro-2H-benzo[b][1,4]oxazin-7-yl)sulfonyl)-4-(2-((R or S)-2-(2-isopropylphenyl)pyrrolidin-1-yl)-7-azaspiro[3.5]nonan-7-yl)-2-((6-(2-(methylamino)ethoxy)-1H-pyrrolo[2,3-b]pyridin-5-yl)oxy)benzamide]	1 nM
–	19 nM	–	CC(C)c1ccccc1[C@@H]1CCC[C@@H]1N1CC2(CCN(c3ccc(C(=O)NS(=O)(=O)c4cc5c(c([N+](=O)[O-])c4)N[C@@H]([C@H]4CC[C@](C)(O)CC4)CO5)c(Oc4cc5cc[nH]c5nc4Cl)c3)CC2)C1 (single isomer, unassigned) [Example D-101, 2-((6-chloro-1H-pyrrolo2,3-b]pyridin-5-yl)oxy)-N-(((S)-3-((1r,4S)-4-hydroxy-4-methylcyclohexyl)-5-nitro-3,4-dihydro-2H-benzo[b] [1,4]oxazin-7-yl)sulfonyl)-4-(2-((1S,2S or 1R,2R)-2-(2-isopropylphenyl)cyclopentyl)-2,7-diazaspiro[3.5] nonan-7-yl)benzamide]	1 nM
